Laboratory results taken from patent US12668599B2, “Heterobifunctional compounds and methods of treating disease” (Halda Therapeutics OpCo, Inc., priority 2023, dated 2026).

Key:
[1] = test system: T-Rex 293 cell line SC3 cells having increased expression of androgen receptor protein due to exposure to doxycycline; assay: Cellular growth inhibition, T-Rex 293 SC3 cells with doxycycline-induced androgen receptor (CellTiter-Glo 2.0, 72 hours); type: cell-based; settings: for GI50: T-Rex 293 SC3 cells with 10 ng/ml doxycycline (increased androgen receptor expression), 72 hours, CellTiter-Glo 2.0
Experimental: (§1) Ability of the test compounds to inhibit proliferation of the foregoing cell types was evaluated according to the procedures set forth below.
(§2) The doxycycline-inducible androgen receptor protein expressing cell line was established using the following protocol: T-Rex 293 cells were purchased from Invitrogen (Cat #R71007) and transfected using Lipofectamine 2000 with the wild-type androgen receptor protein sequence cloned into the pcDNA4/TO vector. Transfected cells were selected using 400 μg/mL Zeocin (Invitrogen Cat #R25001). Following selection, single clones were raised and maintained in Dulbecco's Modified Eagle Medium (DMEM) supplemented with 10% w/w Tetracycline-free fetal bovine serum (FBS) and 250 μg/mL Zeocin. Clones were analyzed for expression of androgen receptor protein in the presence and absence of 10 ng/ml doxycycline (Sigma Cat #D9891), and a single doxycycline-inducible clone (hereinafter “SC3”) was selected for use in downstream assays.
(§3) The SC3 cells were seeded on poly-D-lysine coated, black clear-bottom 384-well plates at 2500/well, in 25 μL Phenol Red Free Dulbecco's Modified Eagle Medium (DMEM) supplemented with 10% w/w charcoal-dextran treated fetal bovine serum (FBS) and 1% w/w pen-strep, with or without 10 ng/ml doxycycline. Pen-Strep is a commercially available mixture of penicillin G and streptomycin, which is used in mammalian cell culture media to prevent bacterial contamination. Phenol Red Free Dulbecco's Modified Eagle Medium (DMEM) supplemented with 10% w/w charcoal-dextran treated fetal bovine serum (FBS) and 1% w/w pen-strep, with or without 10 ng/mL doxycycline is herein referred to as Treatment Medium. Following seeding of cells in the plates, the plates were spun at 300×g for 30 seconds, then equilibrated to room temperature for 30 minutes, and then deposited in a humidified tissue culture incubator maintained at 37° C. with 5% CO2.
(§4) At 24 hours after seeding of the cells, dilutions of test compound were prepared in DMSO and dissolved in Treatment Medium, to achieve a final DMSO concentration of 0.5% w/w, thereby providing the Test Compound Solution. A 25 μL aliquot of the Test Compound Solution was added to cells in the well plates. An equal volume of a solution containing DMSO and Treatment Medium was used as a negative control. Following treatment of cells with Test Compound Solution or said equal volume of a solution containing DMSO and Treatment Medium, the plates were spun at 300×g for 30 seconds, and then left in an incubator for 72 hours.
(§5) At the end of the treatment duration, cell viability was quantified with CellTiter-Glo 2.0 reagent (Promega Cat #G9243). For this purpose, plates were equilibrated to room temperature for 30 minutes, and then 25 μL of CellTiter-Glo 2.0 reagent was added to cells in the plate wells. Plates were then agitated on a shaker for two minutes at 500 rpm and subsequently incubated at room temperature for 10 minutes. Following incubation, the plates were spun at 3000×g for 30 seconds, then sealed with an optical adhesive cover, and luminescence readings were measured with an En Vision Plate Reader.
(§6) Data was normalized using zero luminescence for baseline. A four-parameter non-linear regression curve fit was applied to dose-response data in GraphPad Prism data analysis software to determine the half-maximal growth inhibitory concentration (GI50) for each test compound.

VCaP cells = assay: Cellular growth inhibition assay for VCaP cells (CellTiter-Glo 2.0, 72 hours); type: cell-based, human; settings: for GI50: CellTiter-Glo 2.0
Experimental: Exemplary compounds were tested for ability to inhibit the proliferation of VCaP cells. VCap cells are a commercially available human prostate cancer cell line.
VCaP cells were purchased from American Type Cell Culture (ATCC Cat #CRL2876) and then seeded on poly-D-lysine coated, black clear-bottom 384-well plates at 5000/well in 25 μL Dulbecco's Modified Eagle Medium (DMEM) supplemented with 10% w/w Fetal bovine serum (FBS) and 1% w/w Pen-Strep. Pen-Strep is a commercially available mixture of penicillin G and streptomycin, which is used in mammalian cell culture media to prevent bacterial contamination. Dulbecco's Modified Eagle Medium (DMEM) supplemented with 10% w/w fetal bovine serum (FBS) and 1% w/w Pen-Strep is herein referred to as Treatment Medium. Following seeding of cells in the plates, the plates were spun at 300×g for 30 seconds, then equilibrated to room temperature for 30 minutes, and then deposited in a humidified tissue culture incubator maintained at 37° C. with 5% CO2.
as §4, §5, §6

[2] = test system: T-Rex 293 cell line SC3 cells lacking increased expression of androgen receptor protein; assay: Cellular growth inhibition, T-Rex 293 SC3 cells without doxycycline (CellTiter-Glo 2.0, 72 hours); type: cell-based; settings: T-Rex 293 SC3 cells not exposed to doxycycline (no increased androgen receptor expression)
Experimental: as §1, §2, §3, §4, §5, §6

SMILES | GI50 [1] [nM] | GI50 (VCaP cells; Homo sapiens, VCaP, 72 h) [nM] | GI50 ([2]; 72 h) [nM] | GI50 (VCaP cells; 72 hours) [nM] | GI50 [2] [nM] | Ratio of GI50's ([1]; GI50 of the top compound in the pair divided by GI50 of the lower compound, T-Rex 293 SC3 cells with doxycycline-induced androgen receptor) | Ratio of GI50's (VCaP cells; GI50 of the top compound in the pair divided by GI50 of the lower compound)
COC[C@@H]1N=C(c2ccc(C3CCC4(CC3)CCN(c3ccc(C(=O)NC5CCC(Oc6ccc(C#N)c(OC(F)(F)F)c6)CC5)nn3)C4)cc2)c2c(sc(C)c2C)-n2c(C)nnc21 (stereo partly drawn) [Compound I-2, N-[4-[4-cyano-3-(trifluoromethoxy)phenoxy]cyclohexyl]-6-[8-[4-[(9R)-9-(methoxymethyl)-4,5,13-trimethyl-3-thia-1,8,11,12-tetrazatricyclo[8.3.0.0^2,6]trideca-2 (6),4,7,10,12-pentaen-7-yl]phenyl]-2-azaspiro[4.5]decan-2-yl]pyridazine-3-carboxamide] | < 500 | < 500 | < 500 |  |  |  | 
COCC[C@@H]1N=C(c2ccc(C3CCC4(CC3)CCN(c3ccc(C(=O)NC5CCC(Oc6ccc(C#N)c(OC(F)(F)F)c6)CC5)nn3)C4)cc2)c2c(sc(C)c2C)-n2c(C)nnc21 (stereo partly drawn) [Compound I-4, N-[4-[4-cyano-3-(trifluoromethoxy)phenoxy]cyclohexyl]-6-[8-[4-[(9S)-9-(2-methoxyethyl)-4,5,13-trimethyl-3-thia-1,8,11,12-tetrazatricyclo[8.3.0.0^2,6]trideca-2 (6),4,7,10,12-pentaen-7-yl]phenyl]-2-azaspiro[4.5]decan-2-yl]pyridazine-3-carboxamide] | < 500 | < 500 | 1500 to 3000 |  |  |  | 
CC[C@@H]1N=C(c2ccc(C#CC3CC4(C3)CN(c3ccc(C(=O)N[C@H]5CC[C@H](Oc6ccc(C#N)c(OC(F)(F)F)c6)CC5)nn3)C4)cc2)c2c(sc(C)c2C)-n2c(C)nnc21 [Compound I-6, N-[4-[4-cyano-3-(trifluoromethoxy)phenoxy]cyclohexyl]-6-[6-[2-[4-[(9S)-9-ethyl-4,5,13-trimethyl-3-thia-1,8,11,12-tetrazatricyclo[8.3.0.0^2,6]trideca-2 (6),4,7,10,12-pentaen-7-yl]phenyl]ethynyl]-2-azaspiro[3.3]heptan-2-yl]pyridazine-3-carboxamide] | < 500 | < 500 | < 500 |  |  |  | 
Cc1sc2c(c1C)C(c1ccc(C#CC3CC4(C3)CN(c3ccc(C(=O)N[C@H]5CC[C@H](Oc6ccc(C#N)c(OC(F)(F)F)c6)CC5)nn3)C4)cc1)=NC1(CC1)c1nnc(C)n1-2 [Compound I-7, N-[4-[4-cyano-3-(trifluoromethoxy)phenoxy]cyclohexyl]-6-[6-[2-[4-(4,5,13-trimethylspiro[3-thia-1,8,11,12-tetrazatricyclo[8.3.0.0^2,6]trideca-2 (6),4,7,10,12-pentaene-9,1′-cyclopropane]-7-yl)phenyl]ethynyl]-2-azaspiro[3.3]heptan-2-yl]pyridazine-3-carboxamide] | < 500 | < 500 | < 500 |  |  |  | 
COC[C@@H]1N=C(c2ccc(C#CC3CC4(C3)CN(c3ccc(C(=O)N[C@H]5CC[C@H](Oc6ccc(C#N)c(OC(F)(F)F)c6)CC5)nn3)C4)cc2)c2c(sc(C)c2C)-n2c(C)nnc21 [Compound I-8, N-[4-[4-cyano-3-(trifluoromethoxy)phenoxy]cyclohexyl]-6-[6-[2-[4-[(9R)-9-(methoxymethyl)-4,5,13-trimethyl-3-thia-1,8,11,12-tetrazatricyclo[8.3.0.0^2,6]trideca-2 (6),4,7,10,12-pentaen-7-yl]phenyl]ethynyl]-2-azaspiro[3.3]heptan-2-yl]pyridazine-3-carboxamide] | < 500 | < 500 | < 500 |  |  |  | 
COCC[C@@H]1N=C(c2ccc(C#CC3CC4(C3)CN(c3ccc(C(=O)N[C@H]5CC[C@H](Oc6ccc(C#N)c(OC(F)(F)F)c6)CC5)nn3)C4)cc2)c2c(sc(C)c2C)-n2c(C)nnc21 [Compound I-9, N-[4-[4-cyano-3-(trifluoromethoxy)phenoxy]cyclohexyl]-6-[6-[2-[4-[(9S)-9-(2-methoxyethyl)-4,5,13-trimethyl-3-thia-1,8,11,12-tetrazatricyclo[8.3.0.0^2,6]trideca-2 (6),4,7,10,12-pentaen-7-yl]phenyl]ethynyl]-2-azaspiro[3.3]heptan-2-yl]pyridazine-3-carboxamide] | < 500 | < 500 | < 500 |  |  |  | 
Cc1sc2c(c1C)C(c1ccc(C#CC3CC4(C3)CN(c3ccc(C(=O)N[C@H]5CC[C@H](Oc6ccc(C#N)c(OC(F)(F)F)c6)CC5)nn3)C4)cc1)=N[C@@H](C)c1nnc(C)n1-2 [Compound I-12, N-[4-[4-cyano-3-(trifluoromethoxy)phenoxy]cyclohexyl]-6-[6-[2-[4-[(9S)-4,5,9,13-tetramethyl-3-thia-1,8,11,12-tetrazatricyclo[8.3.0.0^2,6]trideca-2 (6),4,7,10,12-pentaen-7-yl]phenyl]ethynyl]-2-azaspiro[3.3]heptan-2-yl]pyridazine-3-carboxamide] | < 500 | < 500 | < 500 |  |  |  | 
CC[C@@H]1N=C(c2ccc(C3CCC4(CC3)CCN(c3ccc(C(=O)NC5CCC(Oc6ccc(C#N)c(OC(F)(F)F)c6)CC5)nn3)C4)cc2)c2c(sc(C)c2C)-n2c(C)nnc21 (stereo partly drawn) [Compound I-13, N-((1r,4r)-4-(4-cyano-3-(trifluoromethoxy)phenoxy)cyclohexyl)-6-(8-(4-((S)-6-ethyl-2,3,9-trimethyl-6H-thieno[3,2-f][1,2,4]triazolo[4,3-a][1,4]diazepin-4-yl)phenyl)-2-azaspiro[4.5]decan-2-yl) pyridazine-3-carboxamide] | < 500 |  |  | < 500 | < 500 |  | 
Cc1sc2c(c1C)C(c1ccc(OC3CC4(CCN(c5ccc(C(=O)NC6CCC(Oc7ccc(C#N)c(OC(F)(F)F)c7)CC6)nn5)CC4)C3)cc1)=N[C@@H](Cc1ncco1)c1nnc(C)n1-2 (stereo partly drawn) [Compound I-16, N-[4-[4-cyano-3-(trifluoromethoxy)phenoxy]cyclohexyl]-6-[2-[4-[(9S)-4,5,13-trimethyl-9-(oxazol-2-ylmethyl)-3-thia-1,8,11,12-tetrazatricyclo[8.3.0.0^2,6]trideca-2 (6),4,7,10,12-pentaen-7-yl]phenoxy]-7-azaspiro[3.5]nonan-7-yl]pyridazine-3-carboxamide] | < 500 | < 500 | < 500 |  |  |  | 
COc1cc(O[C@H]2CC[C@H](NC(=O)c3ccc(N4CCC5(CCN(c6ccc(C7=N[C@@H](C)c8nnc(C)n8-c8sc(C)c(C)c87)cc6)CC5)C4)nn3)CC2)ccc1C#N [Compound I-17, N-[4-(4-cyano-3-methoxy-phenoxy)cyclohexyl]-6-[8-[4-[(9S)-4,5,9,13-tetramethyl-3-thia-1,8,11,12-tetrazatricyclo[8.3.0.0^2,6]trideca-2 (6),4,7,10,12-pentaen-7-yl]phenyl]-2,8-diazaspiro[4.5]decan-2-yl]pyridazine-3-carboxamide] | < 500 |  |  | < 500 | < 500 | 1 | 1
